{"source": "patent US11357779B2", "about": "(G1 Therapeutics, Inc., priority 2018, dated 2022)", "key": {"clinical": {"assay": "clinical", "conditions": "human, in vivo"}, "ME-016 tumor": {"test_system": "ME-016 tumor", "assay": "Murine BRAFmut melanoma PDX model, tumor growth and survival", "format": "in vivo", "conditions": "ME-016 tumor-containing mice; Compound I 100 mg/kg, dabrafenib 25 mg/kg, trametinib 1 mg/kg", "method": "Mice containing a ME-016 tumor were treated with vehicle, Compound I (100 mg/kg), dabrafenib (25 mg/kg), trametinib (1 mg/kg), Compound I+dabrafenib, Compound I+trametinib, dabrafenib+trametinib, and Compound I+dabrafenib+trametinib."}, "[1]": {"assay": "Apparent volume of distribution (Vd/F)", "format": "in vivo", "conditions": "human, plasma, oral; 200 mg QD of compound II", "method": "“Vd/F” (Liters) as used herein means the theoretical volume that would be necessary to contain the total amount of an administered drug at the same concentration that it is observed in the blood plasma. It is generally defined as the distribution of a medication between plasma and the rest of the body after oral or parenteral dosing. “Vd/F” as used herein is calculated by using the terminal elimination rate constant, which is derived mathematically from the concentration vs time curve to extrapolate a value of plasma concentration at time zero. Volume of distribution for oral drugs is normally expressed as Vd/F or Vz/F. The skilled artisan is familiar with calculating Vd/F or Vz/F.\nThe apparent volume of distribution (Vd/F) was calculated from the terminal rate constant (ke) derived from the plasma concentration-versus-time data provided for Compound I in Example 1 when dosed with 200 mg QD of Form B of Compound II."}, "[2]": {"assay": "Slurry conversion of impure Form B to pure Form B (small scale and scale-up, XRPD)", "format": "physicochemical", "method": "Approximately 16 small scale slurry experiments were carried out by varying the slurry concentration, temperature, HCl acid molar concentration, and content in the aqueous acetone mixtures as well as the water content. Slurries of impure Form B were performed in a given solvent system at targeted calculated concentration at ambient or elevated temperatures for various time/durations. The solids were isolated by vacuum filtration and submitted for XRPD analysis. The specific experimental conditions are detailed in Table 109 where solvent system ratios are by volume.\nThe slurries in acidic aqueous acetone mixtures at an elevated temperature of 50° C. […] FIG. 19 compares XRPD patterns of Sample 3 and 5 to the starting material of the experiments, impure Form B and to pure Form B. For comparison purposes, the samples were also compared to a second impure sample of Form B, (Impure Form B Sample 2 in FIG. 19). This second impure Form B contained larger amounts of the unknown Form than the impure Form B previously described in Example 8.\nSeveral slurry experiments were performed in water:acetone solvent systems starting with impure Form B and varying the water:acetone ratio, slurry concentration, and time. Based on the initial slurry results, experiments in 1:2 (v/v) water:acetone at ambient temperature were performed with aliquots taken after 16 hours (Sample 6) and 20.5 hours (Sample 7). The slurry in this solvent system was conducted at a concentration of 100-125 mg/mL and ambient temperature. The XRPD patterns of the resulting materials were consistent with pure Form B (FIG. 20).\nIn an effort to improve the yield, water:acetone 1:3 (v/v) was used at 150 mg/mL concentration (Samples 13 and 14) however, the conversion was not completed even after 4 days (FIG. 21). Therefore, one experiment was performed using water:acetone 1:2 (v/v) slurry for 18 hours and then adding acetone to reach ratio water:acetone 1:4 (v/v) followed by slurry for 4 hours (Sample 12). The XRPD pattern of the resulting material was consistent with Form B, however, one of the undesired peaks reappeared shifted from 3.95 °2θ to 4.2 °2θ (FIG. 21).\nThe Julabo FP50 temperature control unit contained Julabo Thermal C10 fluid and the reactor temperature was measured with a K-type PTFE temperature probe. The experiments were carried out with Lara Control software version 2.3.5.0. The software tracked circulator temperature, vessel temperature, and stir rate, recording readings every tenth of a second throughout the experiment.\nThe reactor vessel was charged with the solids of impure Form B (58.86 g) in 471 mL of a water:acetone 1:2 (v/v) solvent system achieving 125 mg/mL slurry concentration (Samples 20-23). The resulting slurry was stirred at 30° C. for up to 43 hours with stirring speed of 400 rpm. The slurry was cooled to 25° C. over 30 minutes, discharged from the reactor vessel, and immediately slowly filtered (drop by drop) to […]. A water:acetone 1:2 (v/v) wash solution was prepared in advance and used to wash the filter cake in one portion.\nPulls were taken usually at the 20th hour and if needed at later time points (Table 110).\nThe conversion of impure Form B to pure Form B was conducted in water:acetone 1:2 (v/v) slurry at 125 mg/mL concentration and 30° C. for 43 hours. Very slow filtration was observed and the wet cake was air-dried at ambient conditions for 3.5 hours followed by vacuum drying at ambient temperature and 15 in Hg for 0.5 hour and then at ˜27 in Hg for 3.5 hours yielding 49.26 g ([…])."}, "[3]": {"assay": "Six- and twelve-month stability study of Form B at 25° C./60% RH and 40° C./75% RH", "format": "physicochemical", "method": "Form B was stored at 25° C./60% RH for twelve months and at 40° C./75% RH for six months."}, "[4]": {"assay": "Stability study under thermal stress, 60° C. for 7 days", "format": "physicochemical", "method": "Forms A, B, and D were stored in an oven maintained at 60° C. for 7 days."}}, "note": "“Also recorded” adds a separate entry of the source."}
{"smiles": "CC(C)N1CCN(c2ccc(Nc3ncc4cc5n(c4n3)C3(CCCCC3)CNC5=O)nc2)CC1", "note": "[Compound I, 2′-((5-(4-isopropylpiperazin-1-yl)pyridin-2-yl)amino)-7′,8′-dihydro-6′H-spiro[cyclohexane-1,9′-pyrazino[1′,2′:1,5]pyrrolo[2,3-d]pyrimidin]-6′-one]", "values": [{"measurement": "AUC(0-t)", "setting": "clinical; 200 mg", "value": 229, "unit": "ng·h/mL"}, {"measurement": "AUC(0-t)", "setting": "clinical; 300 mg", "value": 592, "unit": "ng·h/mL"}, {"measurement": "AUC(0-t)", "setting": "clinical; 400 mg", "value": 278, "unit": "ng·h/mL"}, {"measurement": "AUC(0-t)", "setting": "clinical; 500 mg", "value": 607, "unit": "ng·h/mL"}, {"measurement": "(AUC0-24,ss)/ANC", "setting": "clinical; 650 mg", "value": 0.89}, {"measurement": "AUC(0-t)", "setting": "clinical; 650 mg", "value": 956, "unit": "ng·h/mL"}, {"measurement": "Median OS", "setting": "ME-016 tumor", "value": 42.5, "unit": "days"}, {"measurement": "Vd/F", "setting": "[1]", "value": 15200, "unit": "L"}]}
{"smiles": "CC(C)N1CCN(c2ccc(Nc3ncc4cc5n(c4n3)C3(CCCCC3)CNC5=O)nc2)CC1", "note": "[Compound II, 2′-((5-(4-isopropylpiperazin-1-yl)pyridin-2-yl)amino)-7′,8′-dihydro-6′H-spiro[cyclohexane-1,9′-pyrazino[1′,2′:1,5]pyrrolo[2,3-d]pyrimidin]-6′-one]", "values": [{"measurement": "XRPD Result", "setting": "[2]; 125 mg/mL Slurry, 30° C., 20 h", "value": "Form B + small broad"}, {"measurement": "XRPD Result", "setting": "[2]; 125 mg/mL Slurry, 30° C., 24 h", "value": "B + broad peaks at 4.2°"}, {"measurement": "XRPD Result", "setting": "[2]; 125 mg/mL Slurry, 30° C., 42 h", "value": "Form B"}, {"measurement": "XRPD Result", "setting": "[2]; 125 mg/mL Slurry, 30° C., 43 h VF, washed with 50 mL of H2O:acetone 1:2, Air-dried for 3.5 h", "value": "Form B"}, {"measurement": "XRPD Result", "setting": "[2]; Vacuum drying, 22° C., 0.5 h, 15 in Hg, 22° C. 1.5 h, 27-28 in Hg", "value": "Form B"}, {"measurement": "XRPD Result", "setting": "[2]; Vacuum drying, 22° C., 2.0 h, 27 in Hg", "value": "Form B"}]}
{"smiles": "CC(C)N1CCN(c2ccc(Nc3ncc4cc5n(c4n3)C3(CCCCC3)CNC5=O)nc2)CC1", "note": "[Form B]", "values": [{"measurement": "long-term stability, time stable", "setting": "[3]; 25° C. and 60% relative humidity", "value": "at least 1 year"}, {"measurement": "Appearance", "setting": "[3]; 25° C./60% RH, 0M", "value": "Yellow"}, {"measurement": "HPLC Purity", "setting": "[3]; 25° C./60% RH, 0M", "value": 99.5, "unit": "%"}, {"measurement": "Moisture (%)", "setting": "[3]; 25° C./60% RH, 0M", "value": 4.9, "unit": "%"}, {"measurement": "XRPD", "setting": "[3]; 25° C./60% RH, 0M", "value": "Form B"}, {"measurement": "Appearance", "setting": "[3]; 25° C./60% RH, 3M", "value": "Yellow"}, {"measurement": "HPLC Purity", "setting": "[3]; 25° C./60% RH, 3M", "value": 99.5, "unit": "%"}, {"measurement": "Moisture (%)", "setting": "[3]; 25° C./60% RH, 3M", "value": 4.07, "unit": "%"}, {"measurement": "Appearance", "setting": "[3]; 25° C./60% RH, 6M", "value": "Yellow"}, {"measurement": "HPLC Purity", "setting": "[3]; 25° C./60% RH, 6M", "value": 99.5, "unit": "%"}, {"measurement": "Moisture (%)", "setting": "[3]; 25° C./60% RH, 6M", "value": 7.53, "unit": "%"}, {"measurement": "Appearance", "setting": "[3]; 25° C./60% RH, 9M", "value": "Yellow"}, {"measurement": "HPLC Purity", "setting": "[3]; 25° C./60% RH, 9M", "value": 99.6, "unit": "%"}, {"measurement": "Moisture (%)", "setting": "[3]; 25° C./60% RH, 9M", "value": 7.29, "unit": "%"}, {"measurement": "Appearance", "setting": "[3]; 25° C./60% RH, 12M", "value": "Yellow"}, {"measurement": "HPLC Purity", "setting": "[3]; 25° C./60% RH, 12M", "value": 99.5, "unit": "%"}, {"measurement": "Moisture (%)", "setting": "[3]; 25° C./60% RH, 12M", "value": 7.48, "unit": "%"}, {"measurement": "XRPD", "setting": "[3]; 25° C./60% RH, 12M", "value": "Form B"}, {"measurement": "XRPD spectrum at the longest time point studied", "setting": "[3]; 25° C./60% RH, twelve months", "value": "conformed to the reference spectrum"}, {"measurement": "purity at the longest time point studied", "setting": "[3]; 25° C./60% RH, twelve months", "value": 99.5, "unit": "%"}, {"measurement": "Appearance", "setting": "[3]; 40° C./75% RH, 0M", "value": "Yellow solid"}, {"measurement": "HPLC Purity", "setting": "[3]; 40° C./75% RH, 0M", "value": 99.5, "unit": "%"}, {"measurement": "Moisture (%)", "setting": "[3]; 40° C./75% RH, 0M", "value": 4.9, "unit": "%"}, {"measurement": "XRPD", "setting": "[3]; 40° C./75% RH, 0M", "value": "Form B"}, {"measurement": "Appearance", "setting": "[3]; 40° C./75% RH, 1M", "value": "Yellow solid"}, {"measurement": "HPLC Purity", "setting": "[3]; 40° C./75% RH, 1M", "value": 99.5, "unit": "%"}, {"measurement": "Moisture (%)", "setting": "[3]; 40° C./75% RH, 1M", "value": 2.75, "unit": "%"}, {"measurement": "Appearance", "setting": "[3]; 40° C./75% RH, 3M", "value": "Yellow solid"}, {"measurement": "HPLC Purity", "setting": "[3]; 40° C./75% RH, 3M", "value": 99.5, "unit": "%"}, {"measurement": "Moisture (%)", "setting": "[3]; 40° C./75% RH, 3M", "value": 7.47, "unit": "%"}, {"measurement": "XRPD", "setting": "[3]; 40° C./75% RH, 3M", "value": "Form B"}, {"measurement": "Appearance", "setting": "[3]; 40° C./75% RH, 6M", "value": "Yellow solid"}, {"measurement": "HPLC Purity", "setting": "[3]; 40° C./75% RH, 6M", "value": 99.5, "unit": "%"}, {"measurement": "Moisture (%)", "setting": "[3]; 40° C./75% RH, 6M", "value": 7.53, "unit": "%"}, {"measurement": "XRPD", "setting": "[3]; 40° C./75% RH, 6M", "value": "Form B"}, {"measurement": "XRPD spectrum at the longest time point studied", "setting": "[3]; 40° C./75% RH, six months", "value": "conformed to the reference spectrum"}, {"measurement": "purity at the longest time point studied", "setting": "[3]; 40° C./75% RH, six months", "value": 99.5, "unit": "%"}, {"measurement": "XRPD pattern after thermal stress", "setting": "[4]", "value": "stable; also recorded: No change in the XRPD pattern; also recorded: remained unchanged"}]}
